# Results published in ChEMBL document CHEMBL1155271, “Synthesis, crystal structures and antibacterial activity studies of aza-derivatives of phytoalexin from cotton plant--gossypol” (2009).
# Active and inactive are the calls of the source. The calls are words filed in the database; no cut-off is given here.
# Legend:
# Format in all cases: functional
# [1] = system: Staphylococcus epidermidis; assay: Antimicrobial activity against Staphylococcus epidermidis ATCC 12228 at 400 ug after 18 hrs by disk diffusion method; conditions: ATCC 12228, 18 h, read-out: DIZ
# Staphylococcus aureus [2] = assay: Antimicrobial activity against Staphylococcus aureus ATCC 29213 after 18 hrs by twofold dilution technique; conditions: ATCC 29213, 18 h
# Staphylococcus aureus [3] = assay: Antimicrobial activity against Staphylococcus aureus ATCC 6538 after 18 hrs by twofold dilution technique; conditions: ATCC 6538, 18 h
# Staphylococcus aureus [4] = assay: Antimicrobial activity against Staphylococcus aureus ATCC 6538 at 400 ug after 18 hrs by disk diffusion method; conditions: ATCC 6538, 18 h, read-out: DIZ
# Staphylococcus aureus [5] = assay: Antimicrobial activity against Methicillin susceptible Staphylococcus aureus 212/7 by twofold dilution technique
# Staphylococcus aureus [6] = assay: Antimicrobial activity against Staphylococcus aureus ATCC 29213 at 400 ug after 18 hrs by disk diffusion method; conditions: ATCC 29213, 18 h, read-out: DIZ
# Micrococcus luteus [7] = assay: Antimicrobial activity against Micrococcus luteus ATCC 10240 at 400 ug after 18 hrs by disk diffusion method; conditions: ATCC 10240, 18 h, read-out: DIZ
# Staphylococcus aureus [8] = assay: Antimicrobial activity against Methicillin susceptible Staphylococcus aureus 239/7 by twofold dilution technique
# Staphylococcus aureus [9] = assay: Antimicrobial activity against Methicillin susceptible Staphylococcus aureus 207/7 by twofold dilution technique
# Staphylococcus aureus [10] = assay: Antimicrobial activity against methicillin-resistant Staphylococcus aureus 143/6 by twofold dilution technique
# Staphylococcus aureus [11] = assay: Antimicrobial activity against Staphylococcus aureus NCTC 4163 after 18 hrs by twofold dilution technique; conditions: NCTC 4163, 18 h
# Staphylococcus aureus [12] = assay: Antimicrobial activity against Methicillin susceptible Staphylococcus aureus 242/7 by twofold dilution technique
# Staphylococcus aureus [13] = assay: Antimicrobial activity against Methicillin susceptible Staphylococcus aureus 206/7 by twofold dilution technique
# Staphylococcus aureus [14] = assay: Antimicrobial activity against methicillin-resistant Staphylococcus aureus 236/7 by twofold dilution technique
# Staphylococcus aureus [15] = assay: Antimicrobial activity against Methicillin susceptible Staphylococcus aureus 208/7 by twofold dilution technique
# [16] = system: Staphylococcus epidermidis; assay: Antimicrobial activity against Staphylococcus epidermidis ATCC 12228 by twofold dilution technique
# Micrococcus luteus [17] = assay: Antimicrobial activity against Micrococcus luteus ATCC 9341 at 400 ug after 18 hrs by disk diffusion method; conditions: for zone of inhibition at 400 µg/disc: ATCC 9341, 18 h, read-out: DIZ
# Staphylococcus aureus [18] = assay: Antimicrobial activity against Methicillin susceptible Staphylococcus aureus 243/7 by twofold dilution technique
# Staphylococcus aureus [19] = assay: Antimicrobial activity against Staphylococcus aureus ATCC 25923 after 18 hrs by twofold dilution technique; conditions: ATCC 25923, 18 h
# Staphylococcus aureus [20] = assay: Antimicrobial activity against Staphylococcus aureus NCTC 4163 at 400 ug after 18 hrs by disk diffusion method; conditions: NCTC 4163, 18 h, read-out: DIZ
# Staphylococcus aureus [21] = assay: Antimicrobial activity against methicillin-resistant Staphylococcus aureus 217/7 by twofold dilution technique
# Staphylococcus aureus [22] = assay: Antimicrobial activity against methicillin-resistant Staphylococcus aureus 146/6 by twofold dilution technique
# Staphylococcus aureus [23] = assay: Antimicrobial activity against Methicillin susceptible Staphylococcus aureus 237/7 by twofold dilution technique
# Staphylococcus aureus [24] = assay: Antimicrobial activity against methicillin-resistant Staphylococcus aureus 200/7 by twofold dilution technique
# Staphylococcus aureus [25] = assay: Antimicrobial activity against methicillin-resistant Staphylococcus aureus 218/7 by twofold dilution technique
# Staphylococcus aureus [26] = assay: Antimicrobial activity against methicillin-resistant Staphylococcus aureus 136/6 by twofold dilution technique
# Staphylococcus aureus [27] = assay: Antimicrobial activity against Methicillin susceptible Staphylococcus aureus 238/7 by twofold dilution technique
# Bacillus subtilis [28] = assay: Antimicrobial activity against Bacillus subtilis ATCC 6633 after 18 hrs by twofold dilution technique; conditions: ATCC 6633, 18 h
# Staphylococcus aureus [29] = assay: Antimicrobial activity against Methicillin susceptible Staphylococcus aureus 213/7 by twofold dilution technique
# Micrococcus luteus [30] = assay: Antimicrobial activity against Micrococcus luteus ATCC 9341 after 18 hrs by twofold dilution technique; conditions: ATCC 9341, 18 h
# Micrococcus luteus [31] = assay: Antimicrobial activity against Micrococcus luteus ATCC 10240 by twofold dilution technique
# Bacillus cereus [32] = assay: Antimicrobial activity against Bacillus cereus ATCC 11778 after 18 hrs by twofold dilution technique; conditions: ATCC 11778, 18 h
# Bacillus cereus [33] = assay: Antimicrobial activity against Bacillus cereus ATCC 11778 at 400 ug after 18 hrs by disk diffusion method; conditions: ATCC 11778, 18 h, read-out: DIZ
# Staphylococcus aureus [34] = assay: Antimicrobial activity against methicillin-resistant Staphylococcus aureus 144/6 by twofold dilution technique
# Staphylococcus aureus [35] = assay: Antimicrobial activity against Staphylococcus aureus ATCC 25923 at 400 ug after 18 hrs by disk diffusion method; conditions: ATCC 25923, 18 h, read-out: DIZ
# Staphylococcus aureus [36] = assay: Antimicrobial activity against methicillin-resistant Staphylococcus aureus 141/6 by twofold dilution technique
# Staphylococcus aureus [37] = assay: Antimicrobial activity against methicillin-resistant Staphylococcus aureus 140/6 by twofold dilution technique
# Enterococcus hirae [38] = assay: Antimicrobial activity against Enterococcus hirae ATCC 10541 at 400 ug after 18 hrs by disk diffusion method; conditions: for zone of inhibition at 400 µg/disc: ATCC 10541, 18 h, read-out: DIZ
# Bacillus subtilis [39] = assay: Antimicrobial activity against Bacillus subtilis ATCC 6633 at 400 ug after 18 hrs by disk diffusion method; conditions: ATCC 6633, 18 h, read-out: DIZ
# Enterococcus hirae [40] = assay: Antimicrobial activity against Enterococcus hirae ATCC 10541 after 18 hrs by twofold dilution technique; conditions: ATCC 10541, 18 h
Structure (SMILES),zone of inhibition at 400 µg/disc [1] [mm],MIC (Staphylococcus aureus [2]) [µg/mL],MIC (Staphylococcus aureus [3]) [µg/mL],zone of inhibition at 400 µg/disc (Staphylococcus aureus [4]) [mm],MIC (Staphylococcus aureus [5]) [µg/mL],zone of inhibition at 400 µg/disc (Staphylococcus aureus [6]) [mm],zone of inhibition at 400 µg/disc (Micrococcus luteus [7]) [mm],MIC (Staphylococcus aureus [8]) [µg/mL],MIC (Staphylococcus aureus [9]) [µg/mL],MIC (Staphylococcus aureus [10]) [µg/mL],MIC (Staphylococcus aureus [11]) [µg/mL],MIC (Staphylococcus aureus [12]) [µg/mL],MIC (Staphylococcus aureus [13]) [µg/mL],MIC (Staphylococcus aureus [14]) [µg/mL],MIC (Staphylococcus aureus [15]) [µg/mL],MIC [16] [µg/mL],MIC (Staphylococcus aureus [18]) [µg/mL],MIC (Staphylococcus aureus [19]) [µg/mL],zone of inhibition at 400 µg/disc (Staphylococcus aureus [20]) [mm],MIC (Staphylococcus aureus [21]) [µg/mL],other results
CCCCOCCOCCN/C=C1\C(=O)C(O)=C(C(C)C)c2cc(C)c(-c3c(C)cc4c(c3O)/C(=C/NCCOCCOCCCC)C(=O)C(O)=C4C(C)C)c(O)c21,12,50,50,14,200,13,12,100,100,100,100,50,50,50,100,> 400,100,100,14,200,diameter of the inhibition zone (DIZ) (Micrococcus luteus [17]): inactive; MIC (Staphylococcus aureus [22]): 100 µg/mL; MIC (Staphylococcus aureus [23]): 100 µg/mL; MIC (Staphylococcus aureus [24]): 100 µg/mL; MIC (Staphylococcus aureus [25]): 100 µg/mL; MIC (Staphylococcus aureus [26]): 50 µg/mL; MIC (Staphylococcus aureus [27]): 100 µg/mL; MIC (Bacillus subtilis [28]): 200 µg/mL; MIC (Staphylococcus aureus [29]): 100 µg/mL; MIC (Micrococcus luteus [30]): 100 µg/mL; MIC (Micrococcus luteus [31]): 200 µg/mL; MIC (Bacillus cereus [32]): 100 µg/mL; zone of inhibition at 400 µg/disc (Bacillus cereus [33]): 12 mm; MIC (Staphylococcus aureus [34]): 200 µg/mL; zone of inhibition at 400 µg/disc (Staphylococcus aureus [35]): 14 mm; MIC (Staphylococcus aureus [36]): 200 µg/mL; MIC (Staphylococcus aureus [37]): 100 µg/mL; zone of inhibition at 400 µg/disc (Enterococcus hirae [38]): 12 mm; zone of inhibition at 400 µg/disc (Bacillus subtilis [39]): 12 mm; MIC (Enterococcus hirae [40]): 100 µg/mL
Cc1cc2c(c(O)c1-c1c(C)cc3c(c1O)/C(=C/N)C(=O)C(O)=C3C(C)C)/C(=C/N)C(=O)C(O)=C2C(C)C,12,50,50,14,200,13,14,100,200,100,100,50,100,100,100,> 400,100,100,15,200,zone of inhibition at 400 µg/disc (Micrococcus luteus [17]): 11 mm; MIC (Staphylococcus aureus [22]): 100 µg/mL; MIC (Staphylococcus aureus [23]): 100 µg/mL; MIC (Staphylococcus aureus [24]): 100 µg/mL; MIC (Staphylococcus aureus [25]): 100 µg/mL; MIC (Staphylococcus aureus [26]): 100 µg/mL; MIC (Staphylococcus aureus [27]): 100 µg/mL; MIC (Bacillus subtilis [28]): 100 µg/mL; MIC (Staphylococcus aureus [29]): 100 µg/mL; MIC (Micrococcus luteus [30]): 100 µg/mL; MIC (Micrococcus luteus [31]): 100 µg/mL; MIC (Bacillus cereus [32]): 50 µg/mL; zone of inhibition at 400 µg/disc (Bacillus cereus [33]): 11 mm; MIC (Staphylococcus aureus [34]): 100 µg/mL; zone of inhibition at 400 µg/disc (Staphylococcus aureus [35]): 13 mm; MIC (Staphylococcus aureus [36]): 100 µg/mL; MIC (Staphylococcus aureus [37]): 100 µg/mL; diameter of the inhibition zone (DIZ) (Enterococcus hirae [38]): inactive; zone of inhibition at 400 µg/disc (Bacillus subtilis [39]): 11 mm; MIC (Enterococcus hirae [40]): 100 µg/mL
Cc1cc2c(c(O)c1-c1c(C)cc3c(c1O)/C(=C/NCCc1cccs1)C(=O)C(O)=C3C(C)C)/C(=C/NCCc1cccs1)C(=O)C(O)=C2C(C)C,21,25,25,17,25,18,19,50,50,50,50,12.5,25,50,50,100,50,25,18,100,zone of inhibition at 400 µg/disc (Micrococcus luteus [17]): 12 mm; MIC (Staphylococcus aureus [22]): 50 µg/mL; MIC (Staphylococcus aureus [23]): 50 µg/mL; MIC (Staphylococcus aureus [24]): 50 µg/mL; MIC (Staphylococcus aureus [25]): 50 µg/mL; MIC (Staphylococcus aureus [26]): 50 µg/mL; MIC (Staphylococcus aureus [27]): 50 µg/mL; MIC (Bacillus subtilis [28]): 100 µg/mL; MIC (Staphylococcus aureus [29]): 25 µg/mL; MIC (Micrococcus luteus [30]): 50 µg/mL; MIC (Micrococcus luteus [31]): 50 µg/mL; MIC (Bacillus cereus [32]): 50 µg/mL; zone of inhibition at 400 µg/disc (Bacillus cereus [33]): 15 mm; MIC (Staphylococcus aureus [34]): 50 µg/mL; zone of inhibition at 400 µg/disc (Staphylococcus aureus [35]): 18 mm; MIC (Staphylococcus aureus [36]): 50 µg/mL; MIC (Staphylococcus aureus [37]): 50 µg/mL; zone of inhibition at 400 µg/disc (Enterococcus hirae [38]): 14 mm; zone of inhibition at 400 µg/disc (Bacillus subtilis [39]): 16 mm; MIC (Enterococcus hirae [40]): 50 µg/mL
